Measurements reported in US20070213359A1 (ACADIA Pharmaceuticals Inc., priority 2005, published 2007).
Where two headings read alike, the source gives them in different places.

Experiments:
[1] = target: T1, GHSR1a receptor (Homo sapiens, UniProt Q92847); test: 125I-Ghrelin binding assay; conditions: displacement of 125I-ghrelin (0.053 nM), membranes of HEK293 cells transfected with GHSR1a, Cheng-Prussoff, '—' not defined
T1 construct: expressed in transfected cells; host or cells: HEK293 (membranes)

[2] = target: Ghrelin receptor (Homo sapiens, UniProt Q92847); test: Receptor Selection and Amplification Technology (R-SAT) assay; format: cell-based; design: expressed in transfected cells; host or cells: NIH3T3; conditions: for IC50: '—' not defined (nd used separately), read-out: RSAT pIC50 (converted); for Emax: read-out: RSAT Eff(%)
[3] = read-out: Binding pKi (converted)
[4] = negative logarithm of ligand concentration causing 50% inhibition of constitutive receptor response, transfected NIH3T3 cells
[5] = percent inhibition at saturating ligand, normalized to reference ligand Substance P analog = 100%

T1 sequence (Q92847 whole entry): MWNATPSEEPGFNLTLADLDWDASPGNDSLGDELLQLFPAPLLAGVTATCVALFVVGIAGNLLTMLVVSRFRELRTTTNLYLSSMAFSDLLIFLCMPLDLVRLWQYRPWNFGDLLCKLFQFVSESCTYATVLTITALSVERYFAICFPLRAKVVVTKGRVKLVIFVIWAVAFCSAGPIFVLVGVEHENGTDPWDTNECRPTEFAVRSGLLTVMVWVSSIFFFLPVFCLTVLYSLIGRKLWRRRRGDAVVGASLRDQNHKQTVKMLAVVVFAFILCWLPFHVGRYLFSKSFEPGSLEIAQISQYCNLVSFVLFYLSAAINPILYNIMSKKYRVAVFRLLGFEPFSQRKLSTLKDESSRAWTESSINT
Sequence of Ghrelin receptor (Q92847 whole entry): as above

| SMILES | Ki [1, 3] [nM] | IC50 [2, 4] [nM] | RSAT Eff(%) [2, 5] [%] | IC50 ([2]; […]) [nM] | Emax [2] [%] | Ki ([1]; Binding pKi) [nM] | Emax [2, 5] [%] |
| --- | --- | --- | --- | --- | --- | --- | --- |
| COc1cccc2c(C(C)=O)cn(CCCN3CCCN(Cc4ccccc4Cl)CC3)c12 | 10 | 0.251 | 128 |  |  |  |  |
| COc1cccc2c(C(=O)c3ccccc3)cn(CCCN3CCCN(Cc4ccccc4Cl)CC3)c12 | 3.98 |  |  | 0.398 | 98 |  |  |
| COc1cccc2c(C(=O)Cc3ccccc3)cn(CCCN3CCCN(Cc4ccc(F)cc4)CC3)c12 | 7.94 |  |  | 0.398 | 87 |  |  |
| COc1cccc2c(C(=O)Cc3ccccc3)cn(CCCN3CCCN(Cc4ccccc4Cl)CC3)c12 | 6.31 |  |  | 0.501 | 92 |  |  |
| COc1cccc2c(C(=O)C3CC3)cn(CCCN3C4CCC3CC(Oc3ccc(Cl)cc3)C4)c12 (centres unmarked) |  |  |  | 3.98 | 86 | 158 |  |
| CC(=O)c1cn(CCCN2CCCN(CCc3ccccc3)CC2)c2c(Br)cccc12 |  |  |  | 3.98 | 98 | 79.4 |  |
| CCc1cccc2c(C(C)=O)cn(CCCN3C4CCC3CC(CCc3ccccc3)C4)c12 (centres unmarked) | 126 | 3.98 |  |  | 103 |  |  |
| CC(=O)c1cn(CCCN2CCC(Oc3ccc(Cl)cc3)CC2)c2c(Br)cccc12 | 100 | 3.98 |  |  |  |  | 105 |
| COc1cccc2c(C(=O)NCc3cccc(Cl)c3)cn(CCCN3C4CCC3CC(Oc3ccccc3Cl)C4)c12 (centres unmarked) | 20 | 3.98 | 99 |  |  |  |  |
| CC(=O)c1cn(CCCN2C3CCC2CC(Oc2ccc(Cl)cc2)C3)c2c(C)cccc12 (centres unmarked) | 126 | 5.01 |  |  |  |  | 99 |
| CC(=O)c1cn(CCCN2CCC(Oc3ccc(F)cc3)CC2)c2c(C)cccc12 | 200 | 5.01 |  |  |  |  | 72 |
| CC(=O)c1cn(CCCN2CCCN(Cc3ccccc3Cl)CC2)c2c(Br)cccc12 | 10 | 5.01 |  |  |  |  | 95 |
| COc1cccc2c(C(=O)NCc3cccc(C)c3)cn(CCCN3C4CCC3CC(Oc3ccccc3Cl)C4)c12 (centres unmarked) | 20 | 5.01 | 121 |  |  |  |  |
| COc1cccc2c(C(=O)c3ccccc3)cn(CCCN3C4CCC3CC(CC(=O)c3ccccc3)C4)c12 (centres unmarked) | 100 |  |  | 5.01 | 101 |  |  |
| CC(=O)c1cn(CCCN2CCCN(Cc3ccccc3Cl)CC2)c2c(C#N)cccc12 | 63.1 | 6.31 |  |  |  |  | 98 |
| COc1cccc2c(C(=O)c3ccccc3)cn(CCCN3CCC(Oc4ccccc4Cl)CC3)c12 | 158 |  |  | 6.31 | 79 |  |  |
| COc1cccc2c(C(=O)NCC(C)C)cn(CCCN3C4CCC3CC(Oc3ccc(Cl)cc3)C4)c12 (centres unmarked) | 100 | 6.31 | 107 |  |  |  |  |
| COc1cccc2c(C(=O)c3ccccc3)cn(CCCN3CCC(Oc4ccc(Cl)cc4)CC3)c12 | 100 |  |  | 6.31 | 93 |  |  |
| COc1cccc2c(C(C)=O)cn(CCCN3CCN(c4ncccc4C(F)(F)F)CC3)c12 | 1000 | 6.31 |  |  |  |  | 108 |
| COc1cccc2c(C(=O)c3ccccc3)cn(CCCN3CCN(Oc4cccc(Cl)c4)CC3)c12 | 7.94 |  |  | 6.31 | 79 |  |  |
| COc1cccc2c(C(C)=O)cn(CCCN3CCN(c4c(C)cccc4C)CC3)c12 | 1000 | 6.31 |  |  |  |  | 107 |
| COc1cccc2c(C(=O)c3ccccc3)cn(CCCN3C4CCC3CC(Oc3ccc(Cl)cc3)C4)c12 (centres unmarked) | 100 |  |  | 7.94 | 91 |  |  |
| CC(=O)c1cn(CCCN2CCC(Oc3cccc(Cl)c3)CC2)c2c(C#N)cccc12 | 158 | 7.94 |  |  |  |  | 101 |
| CCCCC[C@H]1C[C@H]2CC[C@@H](C1)N2CCCn1cc(C(=O)NCC(C)C)c2cccc(OC)c21 | 79.4 | 7.94 |  |  | 135 |  |  |

| SMILES | Ki [1, 3] [nM] | IC50 [2, 4] [nM] | RSAT Eff(%) [2, 5] [%] | IC50 ([2]; […]) [nM] | Emax [2] [%] | Ki ([1]; Binding pKi) [nM] | Emax [2, 5] [%] |
| --- | --- | --- | --- | --- | --- | --- | --- |
| CCCCC1CCN(CCCn2cc(C(=O)NCC(C)C)c3cccc(OC)c32)CC1 | 200 |  |  | 7.94 | 93 |  |  |
| COc1cccc2c(C(C)=O)cn(CCCN3CCN(c4cccc(Cl)c4)CC3)c12 | 501 | 7.94 |  |  |  |  | 99 |
| CC(=O)c1cn(CCCN2C3CCC2CC(CCc2ccccc2)C3)c2c(C#N)cccc12 (centres unmarked) | 39.8 | 7.94 |  |  | 106 |  |  |
| CC(=O)c1cn(CCCN2C3CCC2CC(CCc2ccccc2)C3)c2c(Br)cccc12 (centres unmarked) | 79.4 | 7.94 |  |  |  |  | 107 |
| COc1cccc2c(C(=O)NCc3cccc(Cl)c3)cn(CCCN3CCC(Oc4cccc(Cl)c4)CC3)c12 | 63.1 | 7.94 |  |  | 100 |  |  |
| COc1cccc2c(C(=O)NCC(C)C)cn(CCCN3CCC(Oc4ccccc4Cl)CC3)c12 | 63.1 | 7.94 |  |  | 100 |  |  |
| CC(=O)c1cn(CCCN2CCCN(Cc3ccccc3Cl)CC2)c2c(Cl)cccc12 | 79.4 | 7.94 |  |  |  |  | 92 |
| COc1cccc2c(C(=O)Cc3ccccc3)cn(CCCN3CCN(CCOc4ccc(Cl)cc4)CC3)c12 | 3160 |  |  | 7.94 | 82 |  |  |
| COc1cccc2c(C(C)=O)cn(CCCN3CCN(c4cccc(Cl)c4Cl)CC3)c12 | 398 | 7.94 |  |  |  |  | 103 |
| CCCCC1CCN(CCCn2cc(C(C)=O)c3cccc(C)c32)CC1 | 316 | 7.94 |  |  |  |  | 78 |
| COc1cccc2c(C(=O)NCC(C)C)cn(CCCN3C4CCC3CC(Oc3ccccc3Cl)C4)c12 (centres unmarked) | 100 | 10 | 116 |  |  |  |  |
| CC(=O)c1cn(CCCN2CCC(c3nc4ccccc4s3)CC2)c2c(Br)cccc12 | 200 | 10 |  |  |  |  | 81 |
| COc1cccc2c(C(C)=O)cn(CC(C)CN3CCCN(Cc4ccccc4Cl)CC3)c12 (centres unmarked) | 100 | 10 |  |  |  |  | 123 |
| COc1cccc2c(C(C)=O)cn(CCCN3C4CC[C@H]3C[C@@H](Oc3ccc(Cl)cc3)C4)c12 | 200 |  |  | 10 | 114 |  |  |
| COc1ccccc1C1CCN(CCCn2cc(C(=O)c3ccccc3)c3cccc(OC)c32)CC1 | 158 |  |  | 12.6 | 88 |  |  |
| COc1cccc2c(C(=O)c3ccccc3)cn(CCCN3C4CCC3CC(Oc3ccc(F)cc3)C4)c12 (centres unmarked) | 158 |  |  | 12.6 | 106 |  |  |
| COc1cccc2c(C(C)=O)cn(CCCN3C4CCC3CC(Oc3ccc(Cl)cc3)C4)c12 (centres unmarked) | 501 | 12.6 | 113 |  |  |  |  |
| COc1cccc2c(C(C)=O)cn(CCCN3CCN(c4ccc(C#N)cc4)CC3)c12 | 631 | 12.6 |  |  |  |  | 90 |
| COc1cccc2c(C(=O)Cc3ccccc3)cn(CCCN3C4CCC3CC(CC(=O)c3ccc(Cl)cc3)C4)c12 (centres unmarked) | 31.6 |  |  | 12.6 | 167 |  |  |
| CC(=O)c1c(C)n(CCCN2C3CCC2CC(CCc2ccc(Cl)cc2)C3)c2c(Br)cccc12 (centres unmarked) | 316 | 12.6 |  |  |  |  | 69 |
| COc1cccc2c(C(=O)NCc3cccc(Cl)c3)cn(CCCN3CCC(CCOc4ccc(Cl)cc4)CC3)c12 |  |  |  |  | 46 | 251 |  |
| CC(=O)c1c(C)n(CCCN2CCC(Oc3cccc(Cl)c3)CC2)c2c(Br)cccc12 | 631 |  |  |  |  |  | 35 |
| CC(=O)c1cn(CCCN2CCCC(Cc3ccccc3Cl)C2)c2c(C#N)cccc12 (centres unmarked) | 794 |  |  |  |  |  | 22 |
| CC(=O)c1c(C)n(CCCN2C3CCC2CC(Oc2ccc(F)cc2)C3)c2c(Br)cccc12 (centres unmarked) | 1580 |  |  |  |  |  | 1 |
